# In paper PMC12566971, “Polyprenylated Acylphloroglucinols from Hypericum rochelii and Hypericum olympicum—Cytotoxic Effects on Non-Tumorigenic Cell Lines and Antibacterial Potential” (Pharmaceuticals, 2025):
# Values joined by “and” are separate entries in the source; they are usually repeats but may differ in a detail not shown here. Equal entries are not always repeated.
# Columns and labels:
# Enterococcus faecalis [1] = experiment: MIC and MBC evaluation (broth microdilution, agar plate assay); format: cell-based
# Procedure: (§1) The MIC and MBC assessment on the pathogenic bacteria and the candidate probiotic lactic acid bacteria was carried out by the broth microdilution assay (BMD) and the agar plate assay, respectively, as described in [4]. The metabolic (dehydrogenase) activity of the lactic acid bacteria was assessed as described in [4].
# (§2) P. aeruginosa PAO1 ATCC 15692 was purchased from the American Type Cell Culture Collection (ATCC, Manassas, VA, USA). S. mutans DSM 20523 was bought from the German Collection of Microorganisms and Cell Cultures (DSMZ GmbH, Braunschweig, Germany). All other bacteria and strains were purchased as described in [4].
# Staphylococcus aureus [2] = experiment: as above; format: cell-based
# Procedure: as §1, §2
# Streptococcus mutans = experiment: as above; format: cell-based
# Procedure: as §1, §2
# Streptococcus pyogenes = experiment: as above; format: cell-based
# Procedure: as §1, §2
# HEK-293 cells = experiment: Colony-forming unit assay; format: cell-based, human; details: for Percentage of colonies, HEK-293: untreated control = 100%
# Procedure: (§3) The CFU was also performed according to ISO 10993-5 [56]. Briefly, the cell lines were seeded at a concentration like for the MTT assay in 6-well plates, treated with the chosen agents and left for a 48 h exposure. Then, the cells were trypsinized, and pre-calculated 20 to 100 µL from the cell suspension was added to a sterile Roswell Park Memorial Institute (RPMI) medium (RPMI-A, Capricorn Scientific), containing 20% of the respective cell culture medium for each cell line but with a final concentration of FBS and L-glutamine of 40–42% and 0.8–1.2 mM, respectively, 0.2% NaHCO3 (S6297, Merck Sigma-Aldrich, Saint Louis, MI, USA), and 0.8% methylcellulose (M0512, Merck Sigma-Aldrich) for viscosity. The viscous cell solution was vortexed for 10 s and dispensed in an equal number of cells per well in 6-well plates (1.2 mL per well) in triplicate for each concentration of treatment. HaCaT and HEK-293 were seeded at a concentration of 2500 cells per mL, CCL-1 and HEPG2—2000 cells per mL, and HGF—1000 cells per mL. The plates were incubated for 6 to 10 days, and when the colonies reached 20 to 50 cells per colony, 100 µL MTT salt solution was added to each well. After half an hour, the stained colonies were counted manually using a microscope.
# CCL-1 cells = experiment: Colony-forming unit assay; format: cell-based, murine; details: for Percentage of colonies, CCL-1: untreated control = 100%
# Procedure: as §3
# S. aureus biofilm = experiment: Biofilm assay; format: cell-based, Staphylococcus aureus
# Procedure: The biofilm assay was performed according to the protocol of Stepanović [138], as already described.
# human CYP450 3A4 isoform = experiment: ELISA for cytochrome P450 3A4 in HEPG2 cells; format: in vitro ADME
# Procedure: The effect on CYP450 was tested using the ELISA method on the HEPG2 liver cell line. As mentioned, it has weak or absent expression of the CYP450 superfamily, e.g., CYP3A4, CYP1A2, etc., and that low basal activity makes it a good model for studies of CYP inducers. In addition, these cells have the advantage of immortalization due to their cancerous nature. The standard curves after the two ELISA tests (Figure S7) were prepared as a standard dose–response curve, also called a four-parameter logistic (4-PL) curve.
# The effect on human cytochrome P450 3A4, the major member of the CYP450 superfamily of enzymes, which is predominantly found in the liver and metabolizes approximately half of the drugs metabolized by CYP450 enzymes, was assayed using the CYP3A4 ELISA Kit (DL-CYP3A4-Hu, DLdevelop, Kelowna, BC, Canada). Sample selection and initial preparation were as for the total cytochrome ELISA. The experiment was performed according to the manufacturer’s instructions. This assay is a sandwich enzyme immunoassay based on the binding of CYP3A4 in standards and samples to a biotin-conjugated antibody specific for CYP3A4. […] The reaction was stopped by adding sulfuric acid solution, and the plate was read at 450 nm on a microplate reader ELx800 (BioTek Instruments, Inc.). The CYP3A4 concentration was determined by comparing the O.D. of the samples with the standard curve.
# Staphylococcus aureus [3] = details: ref [4],[29]; cited from earlier work
# Enterococcus faecalis [4] = details: ref [4],[29]; cited from earlier work
# [5] = bactericidal if ≤ 4, bacteriostatic if > 4
smiles,measurement,setting,value
CC(C)=CCCC1(C)C(CC=C(C)C)CC2C(=O)C1(C(=O)C(C)C)C(=O)C(CC=C(C)C)=C2O (stereo not drawn) [Olympiforin B],MBC,Enterococcus faecalis [1]; Enterococcus faecalis,55 µg/mL and 98 µM
same,"MBC/MIC ratio, E. faecalis",Enterococcus faecalis [1]; [5],14
same,MBC,"Staphylococcus aureus [2]; Staphylococcus aureus, read-out: Minimal bactericidal concentration (MBC), Staphylococcus aureus",19 µg/mL and 34 µM
same,"MBC/MIC ratio, S. aureus",Staphylococcus aureus [2]; [5],19
same,MBC,"Streptococcus mutans; Streptococcus mutans, read-out: MBC for S. mutans",6.25 µg/mL and 11.1 µM
same,MIC,"Streptococcus mutans; Streptococcus mutans, read-out: MIC for S. mutans",3 µg/mL and 5.57 µM
same,"MBC/MIC ratio, Streptococcus mutans",Streptococcus mutans; [5],2
same,MBC,Streptococcus pyogenes; Streptococcus pyogenes,60 µg/mL and 107 µM
same,"MBC/MIC ratio, S. pyogenes",Streptococcus pyogenes; [5],15
same,Colonies per well for HEK-293 cells,"HEK-293 cells; 1/2 × IC50, 48 h exposure",102
same,"Percentage of colonies, HEK-293",HEK-293 cells; 1/2 × IC50,97%
same,Colonies per well for HEK-293 cells,"HEK-293 cells; 2 × IC50, 48 h exposure",80
same,"Percentage of colonies, HEK-293",HEK-293 cells; 2 × IC50,77%
same,Colonies per well for HEK-293 cells,"HEK-293 cells; IC50, 48 h exposure",99
same,"Percentage of colonies, HEK-293",HEK-293 cells; IC50,95%
same,Colonies per well for CCL-1 cells,"CCL-1 cells; 1/2 × IC50, 48 h exposure",167
same,"Percentage of colonies, CCL-1",CCL-1 cells; 1/2 × IC50,106%
same,Colonies per well for CCL-1 cells,"CCL-1 cells; 2 × IC50, 48 h exposure",61
same,"Percentage of colonies, CCL-1",CCL-1 cells; 2 × IC50,39%
same,Colonies per well for CCL-1 cells,"CCL-1 cells; IC50, 48 h exposure",62
same,"Percentage of colonies, CCL-1",CCL-1 cells; IC50,40%
same,IC50,"S. aureus biofilm; Staphylococcus aureus, read-out: Median Biofilm Inhibitory Concentration (MBIC50), S. aureus",0.07 µg/mL and 150 nM
same,"Minimum Biofilm Inhibitory Concentration (MBIC), S. aureus",S. aureus biofilm; no visible biofilm,1 (MIC) µg/mL
same,"CYP450 3A4, Mean Diff. Co vs. agent (Tukey)","human CYP450 3A4 isoform; 2×MIC, control minus treated",0.000325
same,Induction of CYP450 3A4,"human CYP450 3A4 isoform; HEPG2, 24 h, concentrations inhibiting S. aureus",hardly induce
same,"MIC on bacteria, S. aureus",Staphylococcus aureus [3],1 µg/mL
same,"MIC on bacteria, E. faecalis",Enterococcus faecalis [4],4 µg/mL
